Read-outs that look alike come from different tables or passages of the source.
Legend:
[1] = test system: MDA-MB-231 breast cancer cell lines; assay: Cytotoxicity (IC50) of EHop-016 derivatives modified in building block C; type: cell-based; conditions: Homo sapiens, concentration at which 50% of the cell growth is inhibited
Protocol: (§1) An additional example of a compounds with modification in building block C was synthesized via a different procedure as represented in Scheme 2B (see FIG. 11B). The compounds that were synthesized were tested for their biological activity by determination of their cytotoxicity in MDA-MB-231 breast cancer cell lines as shown in Table 5. The cytotoxicity's are expressed as IC50, which indicates the concentration at which 50% of the cell growth is inhibited. Furthermore, the inhibition of cell migration was tested at a concentration of 0.2×IC50, or, when the IC50 was >50 μM at a concentration of 10 μM. For comparison, Table 5 also includes the Lipinski and drug-likeness parameters as calculated via the MolSoft platform.

[2] = test system: MDA-MB-231 breast cancer cells; assay: Wound healing assay (scratch method), cell migration; type: cell-based, human; conditions: for inhibition at 10 µM: read-out: anti-migratory activity (inhibition of migration); for inhibition of migration in words: at a concentration of 0.2×IC50
Protocol: The experimental data of anti-migratory activities for compounds 3a-d and 4a-f were obtained using MDA-MB-231 breast cancer cells. For the migration assay, a wound-healing assay (scratch-wound assay) was utilized in the presence of vehicle (0.02% DMSO) or compounds at […].
Prior to assays, cells were grown until 80-90% confluence was observed. A 75 cm2 flask was used for 2.6×10^5 cells/mL in 10 mL and for a 25 cm2 flask 1.44×10^5 cells/mL in 5 mL. The cells were washed with PBS to remove all traces of FBS. 2 mL was added for a 25 cm2 flasks or 4 mL for a 75 cm2 flasks trypsin, and incubated 5-10 min at 37° C. At the end of the incubation time, cells were re-suspended and counted with hemocytometer using 1:2 dilutions with Trypan blue. Subsequently, cell viability was calculated. In a 12 multiwell plate, the plastic pattern was used to draw a fine space with a fine marker on the bottom of the plate. Cells were seeded at 1.5-2.2×10^5 cells/mL in 1 mL and incubated for 24 h. Cells were then rinsed with PBS and incubated in starving media (0.5% FBS) overnight. All controls and drugs were tested in triplicate. The negative control for each drug was prepared according to the drug's DMSO concentration.
Drugs were diluted and the final concentration at each well […]. The wound was made using a sterile pipette tip of […]. Cells were then rinsed very gently with media without FBS and media with negative controls was added. After a 24 h incubation, the gap distance was evaluated using the software Lumera Infinity Analyze 6.4.0. Pictures were taken at 0, 8, 12 and 24 h using a 10× objective. The percentage of migration was calculated using the following formula: 100−[(X0/X0)]*100 for time 0 h measurements 100−[(X24/X0)]*100 for time 24 h measurements
The experimental data of anti-migratory activities for compounds 3a-d and 4a-f were obtained using MDA-MB-231 breast cancer cells, and results are summarized in Table 1. For the migration assay, we used a wound-healing assay (scratch-wound assay)^22 in the presence of vehicle (0.02% DMSO) or compounds at 10 μM (FIG. 6). […] However, compounds 3a, 3c, and 4a-f inhibited migration in the range of 1-9%.
as §1
Migration assays were performed via the Scratch Method as described previously.

MDA-MB-231 cancer cells = assay: Sulforhodamine B (SRB) growth inhibition assay; type: cell-based, human; conditions: Homo sapiens, MDA-MB-231; SRB assay, 24 h treatment, mean of triplicate, SD <10%
Protocol: (§2) Various compounds were tested to evaluate the dose response curve for effect on MCF-7 cancer cells and MDA-MB-231 cancer cells. MCF-7 and MDA-MB-231 cells were cultured in 10% Minimum Essential Medium Eagle (MEME) supplemented with Earle's Balanced Salt Solution (EBSS), Non-essential Amino acids (NEAA), Sodium pyruvate, Pen/Strep, L-glutamine and Fetal Bovine Serum (FBS) at 37° C. in 5% CO2.
(§3) Sulforhodamine B (SRB) Assay: A stock solution of compounds was prepared at 50 mM in 100% DMSO. For cells preparation, a flask of 75 cm^2 or 25 cm^2 were used for 2.6×10^5 cells or 1.44×10^5 cells respectively with an 80-90% of confluence. Cells were washed with PBS and trypsinized. The concentration of cells was determined using a 1:2 dilutions with Trypan Blue and a hemocytometer. After cell count, the concentration was adjusted to have a 1.9×10^4 cells/well. Approximately […] of cells suspension, compounds, control positive and control negative were added in triplicates to a 96 well plate. Positive controls used were ellipticine, doxorubicin, and/or vincristine, and the negative control was DMSO 0.1%. All compounds at 50, 25, 12.5, 6.3, and 1.6 μM were incubated with cells at 37° C. for 24 hrs. For fixation, cold TCA 50% was used and incubated at 4° C. for 1 hr. Wells were washed and dried prior to tincture with 100 μL of SRB 0.4%. To remove excess of SRB, acetic acid was used. For analysis, TRIS-BASE Solution (pH=10.5) was used and shacked prior to reading using an ELISA reader at 510 nm and the software SoftMax Pro 4.8.
(§4) For each compound, 50% growth inhibition (GI50) was calculated from Sigmoidal dose-response curves (variable-slope) that were generated with data obtained from experiments carried out in triplicates (GI50 values were generated with GraphPad Prism V. 6.02, GraphPad Software, Inc.). The results are presented in FIGS. 4A-4B (MCF-7 cancer cells) and FIGS. 5A-5B (MDA-MB-231 cancer cells).

Cdc42 = Cdc42 (Homo sapiens, UniProt P60953); conditions: cited from earlier work
Cdc42, sequence (P60953 whole entry, species assumed): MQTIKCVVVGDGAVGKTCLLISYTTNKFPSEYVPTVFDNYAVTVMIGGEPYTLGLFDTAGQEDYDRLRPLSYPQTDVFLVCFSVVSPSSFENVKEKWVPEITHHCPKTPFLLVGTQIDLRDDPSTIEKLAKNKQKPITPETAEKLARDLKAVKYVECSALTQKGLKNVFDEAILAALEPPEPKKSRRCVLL

MCF-7 cancer cells = assay: Sulforhodamine B (SRB) growth inhibition assay; type: cell-based; conditions: Homo sapiens, MCF7, 24 h treatment, mean of triplicate, SD <10%
Protocol: as §2, §3, §4

Rac = Rac (Homo sapiens, UniProt P63000); conditions: cited from earlier work
PAK1 = conditions: at 2 μM; cited from earlier work
Rac1-Vav2 interaction = Rac1-Vav2 interaction (Homo sapiens, UniProt P63000); conditions: cited from earlier work
tumor = conditions: at ≥25 mg/kg Body Weight, mouse model; cited from earlier work
[3] = mouse model; cited from earlier work
[4] = test system: SH-SY5Y neuroblastoma cells; assay: Growth inhibition, log dose-response; type: cell-based; conditions: Homo sapiens
Text: FIG. 14 (A-B). Log dose-response curve for compound 8 in MCF-7 (FIG. 14A) and SH-SY5Y neuroblastoma (FIG. 14B) cells.

Work on `CCn1c2ccccc2c2cc(Nc3ccnc(NCCCN4CCOCC4)n3)ccc21` (racemic) [EHop-016] yielded an IC50 [1] of 15.7 µM, an activity at 1 µM ([2]; Homo sapiens, MDA-MB-231, 24 h) of 95.4% and an activity at 5 µM ([2]; Homo sapiens, MDA-MB-231, 24 h, at 5 μM) of 63.4%. For the same compound, the inhibition at 1 µM ([2]; Homo sapiens, MDA-MB-231, read-out: inhibition of migration, at 1.0 μM, scratch method) was 5%, the inhibition at 5 µM ([2]; Homo sapiens, MDA-MB-231, read-out: inhibition of migration, at 5.0 μM, scratch method) was 37% and the inhibition at 10 µM ([2]; Homo sapiens, MDA-MB-231) was 33%. For the same compound, the inhibition at 10 µM ([2]; Homo sapiens, at 10 μM, 24 h, MDA-MB-231) was 33%, the activity at 10 µM ([2]; Homo sapiens, percent relative migration at 10 μM after 24 h, relative to control, MDA-MB-231) was 67 ± 7.55% and the anti-migratory activity ([2]; at 5 pM as printed, MDA-MB-231) was 17%. The anti-migratory activity ([2]; at 5 μM, MDA-MB-231) was 17%, the GI50 (MDA-MB-231 cancer cells) was 15 µM and the “concentrations that inhibit Cdc42 activity” value (Cdc42) was no less than 10 µM. For the same compound, the GI50 (MCF-7 cancer cells) was 14 µM, the “activity relative to previously available Rac inhibitors” value (Rac) was 10-100 times and the IC50 (Rac; metastatic breast cancer cells) was 1 µM. The inhibition of PAK1 (PAK1) was 60%, the IC50 (Rac1-Vav2 interaction) was 1 µM and the “tumor growth, metastasis and angiogenesis in words” value (tumor) was “significantly reduced tumor growth, metastasis, and angiogenesis”. The clearance in words [3] was “cleared rapidly from the circulation”.

With `CCn1c2ccccc2c2cc(Nc3cc(C)nc(NCCCN4CCOCC4)n3)ccc21` [Compound 8, N^4-(9-Ethyl-9H-carbazol-3-yl)-6-methyl-N^2-(3-morpholin-4-yl-propyl)-pyrimidine-2,4-diamine] the GI50 (MCF-7 cancer cells) was 9.5 µM and the GI50 [4] was 6 µM.

Work on `CCN(CC)CCCC(C)Nc1nccc(Nc2ccc3c(c2)c2ccccc2n3CC)n1` (centres unmarked) [Compound 32, N^2-(5-(diethylamino)pentan-2-yl)-N^4-(9-ethyl-9H-carbazol-3-yl)pyrimidine-2,4-diamine] yielded an IC50 [1] of 9 µM and an activity at 1.8 µM ([2]; Homo sapiens, MDA-MB-231, 24 h, at 1.8 μM (0.2×IC50)) of 99.9%.

In the case of `CCn1c2ccccc2c2cc(Nc3ccnc(NCCCn4ccnc4)n3)ccc21` [Compound 33, N^2-(3-(1H-imidazol-1-yl)propyl)-N^4-(9-ethyl-9H-carbazol-3-yl)pyrimidine-2,4-diamine], the IC50 [1] is reported as 7.57 µM and the activity at 1.51 µM ([2]; Homo sapiens, MDA-MB-231, 24 h, at 1.51 μM (0.2×IC50)) is reported as 100%.

Work on `CCn1c2ccccc2c2cc(Nc3ccnc(NCC4CCCCN4)n3)ccc21` (centres unmarked) [Compound 34, N^4-(9-ethyl-9H-carbazol-3-yl)-N^2-(piperidin-2-ylmethyl)pyrimidine-2,4-diamine] yielded an IC50 [1] of 1.97 µM and an activity at 0.39 µM ([2]; Homo sapiens, MDA-MB-231, 24 h, at 0.39 μM (0.2×IC50)) of 100%.

For `CCn1c2ccccc2c2cc(Nc3ccnc(NCCC4CCCN4C)n3)ccc21` (centres unmarked) [Compound 35, N^4-(9-ethyl-9H-carbazol-3-yl)-N^2-(2-(1-methylpyrrolidin-2-yl)ethyl)pyrimidine-2,4-diamine], the IC50 [1] was 19.1 µM, the activity at 3.8 µM ([2]; Homo sapiens, MDA-MB-231, 24 h, at 3.8 μM (0.2×IC50)) was 89.1% and the “inhibition of migration in words” value [2] was “inhibition of migration”.

Compound `CCn1c2ccccc2c2cc(Nc3ccnc(NCCO)n3)ccc21` [Compound 36, 2-((4-((9-ethyl-9H-carbazol-3-yl)amino)pyrimidin-2-yl)amino) ethanol] has an IC50 [1] of 14.6 µM and an activity at 2.92 µM ([2]; Homo sapiens, MDA-MB-231, 24 h, at 2.92 μM (0.2×IC50)) of 94.8%.

In the case of `CCn1c2ccccc2c2cc(Nc3ccnc(NCCOCCO)n3)ccc21` [Compound 37, 2-(2-((4-((9-ethyl-9H-carbazol-3-yl)amino)pyrimidin-2-yl)amino)ethoxy)ethanol], the IC50 [1] is reported as greater than 50 µM and the activity at 3.07 µM ([2]; Homo sapiens, MDA-MB-231, 24 h, at 3.07 μM) is reported as 100%.

With `CCn1c2ccccc2c2cc(Nc3ccnc(NCCOC)n3)ccc21` [Compound 38, N^4-(9-ethyl-9H-carbazol-3-yl)-N^2-(2-methoxyethyl)pyrimidine-2,4-diamine] the IC50 [1] was greater than 50 µM and the activity at 2.8 µM ([2]; Homo sapiens, MDA-MB-231, 24 h, at 2.8 μM) was 96.7%.

Work on `CCn1c2ccccc2c2cc(Nc3ccnc(NCc4ccc(OC)cc4OC)n3)ccc21` [Compound 39, N^2-(2,4-dimethoxybenzyl)-N^4-(9-ethyl-9H-carbazol-3-yl) pyrimidine-2,4-diamine] yielded an IC50 [1] greater than 50 µM and an activity at 0.92 µM ([2]; Homo sapiens, MDA-MB-231, 24 h, at 0.92 μM) of 103%.

With `CCn1c2ccccc2c2cc(Nc3ccnc(Nc4c(OC)cc(OC)cc4OC)n3)ccc21` [Compound 40, N^4-(9-ethyl-9H-carbazol-3-yl)-N^2-(2,4,6-trimethoxyphenyl) pyrimidine-2,4-diamine] the IC50 [1] was 7.7 µM, the activity at 1.54 µM ([2]; Homo sapiens, MDA-MB-231, 24 h, at 1.54 μM (0.2×IC50)) was 80.2% and the “inhibition of migration in words” value [2] was “inhibition of migration”.

For `CCn1c2ccccc2c2cc(Nc3ccnc(NC(=O)Nc4cc(Cl)c(OC)cc4OC)n3)ccc21` [Compound 41, 1-(5-chloro-2,4-dimethoxyphenyl)-3-(4-((9-ethyl-9H-carbazol-3-yl)amino)pyrimidin-2-yl)urea], the IC50 [1] was 10.9 µM, the activity at 1 µM ([2]; Homo sapiens, MDA-MB-231, 24 h) was 77.3% and the “inhibition of migration in words” value [2] was “inhibition of migration”.

Reference: patent US11446299B2, “Carbazole EHop-016 derivatives as anticancer and anti-migratory agents” (UNIVERSITY OF PUERTO RICO, priority 2017, dated 2022)
